Reference: patent publication US10532040B2, “Methods of treating cancer with herbacetin” (REGENTS OF THE UNIVERSITY OF MINNESOTA, priority 2011, dated 2020)
Positions count from the first letter of the chain named.

Legend:
[1] = tested on: SKH-1 hairless mice, DMBA/TPA-induced skin tumors; test: DMBA/TPA two-stage skin carcinogenesis mouse model, 20 weeks; type: in vivo
Description: Hairless SKH:HR-1-hrBr (SKH-1) mice were obtained from Charles River and were maintained under “specific pathogen-free” conditions following the guidelines established by the University of Minnesota Institutional Animal Care and Use Committee. Mice (8˜9 weeks old) were divided into five groups: 1) DMBA+vehicle group (n=20); 2) DMBA-initiated (200 nmol) and TPA-promoted group (17 nmol; n=20); 3) DMBA/TPA+100 nmol of herbacetin (n=20) group; 4) DMBA/TPA+500 nmol of herbacetin group (n=20); 5) DMBA+500 nmol of herbacetin group (n=20). One week after initiation, 17 nmol of TPA in acetone was topically applied twice weekly until the termination of the experiment at 20 weeks. When used, each dose of herbacetin was dissolved in 0.2 ml of 10% H2O in acetone and then topically applied to dorsal mouse skin at 30 min before TPA treatment. The number and volume of tumors per mouse was recorded weekly. The results are expressed as the percent of mice with tumors (incidence), average tumor volumes (size) and average number of tumors per mouse (multiplicity).

[2] = biological target: T1, ODC (WT, D44A, D243A, E384A) (Homo sapiens, UniProt P11926, D44A); test: activity of ectopically expressed ODC (WT, D44A, D243A, E384A); type: cell-based; settings: D44A vs D243A, E384A or wildtype ODC
T1 construct: expressed in transfected cells; host or cells: HCT116 colon cancer cells
T1 sequence (P11926 1-461 D44A): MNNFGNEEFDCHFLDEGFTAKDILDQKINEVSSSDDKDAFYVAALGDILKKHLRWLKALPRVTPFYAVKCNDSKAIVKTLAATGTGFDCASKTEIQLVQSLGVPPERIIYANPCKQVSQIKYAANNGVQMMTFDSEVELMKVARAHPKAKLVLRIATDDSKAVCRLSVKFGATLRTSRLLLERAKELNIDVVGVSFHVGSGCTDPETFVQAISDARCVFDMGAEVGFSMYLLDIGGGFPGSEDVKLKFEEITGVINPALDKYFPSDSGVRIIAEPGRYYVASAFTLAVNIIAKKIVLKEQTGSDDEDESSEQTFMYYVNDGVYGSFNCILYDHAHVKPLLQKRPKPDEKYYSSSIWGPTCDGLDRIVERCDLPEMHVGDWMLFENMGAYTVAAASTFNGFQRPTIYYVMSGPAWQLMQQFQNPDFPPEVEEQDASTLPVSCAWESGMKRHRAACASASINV
Method: FIGS. 1A-1H. Herbacetin binds directly to ODC and inhibits ODC activity. (a) Chemical structure of herbacetin, a new allosteric ODC inhibitor. (b) Computer modeling of herbacetin and the ODC protein crystal structure. […] (c, upper panel) Recombinant ODC, (c, lower panel) HCT116 colon cancer cell lysate or (d) ectopically expressed ODC (WT, mutant D44A, D243A and E384A) cells were incubated with herbacetin-conjugated Sepharose 4B beads or with Sepharose 4B beads alone. Proteins were pulled down using anti-Xpress and then analyzed by Western blotting. The effect of herbacetin on ODC activity was assessed using a (e) recombinant ODC protein, (f) HCT116 colon cancer cells, or (g) TPA-treated JB6 mouse skin epidermal cells. (h) The effect of herbacetin on ectopically expressed ODC (WT, D44A, D243A, E384A) activity was measured as the release of CO2 from L-[1-C^14] ornithine. For e-h, data are represented as means±S.D. of values from triplicate experiments and the asterisk (*) indicates a significant difference (p<0.05) between herbacetin- or DFMO-treated samples compared to untreated controls. WB, Western blot.
(§1) ODC activity was measured as the release of CO2 from L-[1-C^14] ornithine as previously described ([…]).

ODC = biological target: T2, ODC (Homo sapiens, UniProt P11926); test: ODC enzyme assay with recombinant ODC protein; type: biochemical; settings: in vitro
T2 sequence (P11926 1-461): T1 sequence (P11926 1-461 D44A) with A44D
Method: FIGS. 5A-5E. The effect of herbacetin on ODC activity was assessed in (a) DLD-1 and (b) HCT116 colon cancer cells. Cell lysates were incubated for 15 min with reaction buffer and different doses of herbacetin or DFMO and then incubated at 37° C. for 1 h. Herbacetin (c) and kaempferol (d) were modeled as allosteric inhibitors with the ODC crystal structure. (e) The effect of herbacetin or kaempferol on ODC activity was assessed using a human ODC recombinant protein. Each reaction was incubated at 37° C. for 1 h and ODC activity was measured as the release of CO2 from L-[1-C^14] ornithine. Data are represented as means±S.D. of triplicate values. The asterisk (*) indicates a significant difference (p<0.05) between herbacetin-treated samples compared to untreated or kaempferol-treated samples.
as §1

[3] = biological target: T1, ODC (WT, D44A, D243A, E384A); test: pull-down assay with ectopically expressed ODC mutants in HCT116 cells; type: binding; settings: D44A mutant compared with D243A, E384A and WT
Method: A recombinant human ODC protein (200 ng) or total cell lysates (500 μg) to were incubated with herbacetin Sepharose 4B (or Sepharose 4B only as a control) beads (50 μl, 50% slurry) in reaction buffer (50 mM Tris pH 7.5, 5 mM EDTA, 150 mM NaCl, 1 mM DTT, 0.01% NP40, 2 μg/mL bovine serum albumin). After incubation with gentle rocking overnight at 4° C., the beads were washed 5 times with buffer (50 mM Tris pH 7.5, 5 mM EDTA, 150 mM NaCl, 1 mM DTT, 0.01% NP40) and binding was determined by Western blotting.

[4] = herbacetin 100 or 500 nmol topical before TPA, relative to TPA-treated group

## O=c1c(O)c(-c2ccc(O)cc2)oc2c(O)c(O)cc(O)c12 [herbacetin, 3,5,7,8,4′-Pentahydroxyflavone]
[1]; DMBA + 500 nmol herbacetin, no TPA
  tumors in herbacetin only (no TPA) group: No tumors were observed
[1]; TPA-induced skin tumor tissue
  ODC activity in skin tumors: significantly inhibited ODC activity
[1]; [4]
  number of skin tumors: strongly suppressed
  volume of skin tumors: strongly suppressed
[1]; immunoblot of TPA-induced skin tumors
  ODC downstream proteins such as ERK and RSK in skin tumors: strongly suppressed
[2]
  susceptibility of ODC D44A mutant activity to herbacetin: less susceptible
ODC
  ODC activity (release of CO2 from L-[1-C^14] ornithine): inhibited ODC activity similarly
[3]
  binding affinity of ODC mutant with herbacetin: most reduced binding affinity
